Patent US20190270712A1, “COMPOSITIONS FOR THE TREATMENT OF PULMONARY FIBROSIS” (Vectus Biosystems Limited, priority 2016, published 2019)

Tests used:
[1] = system: human small airway epithelial cells; experiment: In vitro screening: xCELLigence SP cellular impedance (cell index); format: cell-based; conditions: 10 μM, 20 μM or 30 μM test compound, 0.25% DMSO, measured every 20 seconds for 3 hours
Experimental: The xCELLigence SP system (Roche) was used to measure changes in cellular impedance (cell index) following the treatment of human small airway epithelial cells (ATCC) with test compound.
Briefly, 50 μl of cell culture medium (DMEM low glucose supplemented with 15% fetal bovine serum at 37° C.) was added to each well of an E-Plate 96 (Roche), and the background impedance in each well was measured. 50 μl of human small airway epithelial cell suspension (10,000 cells/well) was then added to the appropriate wells of the E-Plate 96. Cell index was monitored for each well of the E-Plate 96 in a RTCA SP Station within the cell culture incubator. After overnight incubation for 16-20 hours at 5% CO2 and 95% humidity, 100 μl of test compound solution (test compounds were prepared in DMSO and diluted with cell culture medium to a concentration of 10 μM, 20 μM or 30 μM of test compound with a final DMSO concentration of 0.25%) was added to the appropriate wells of the E-Plate 96 and cell index values were measured immediately following compound treatment every 20 seconds for 3 hours. Cell index value is baseline-corrected by subtracting the cell index of vehicle-treated cells and normalized by dividing by the cell index at the time point immediately before compound addition. Baseline normalized cell index as a function of time is plotted using Roche RTCA software.

lung fibrosis = experiment: In vivo screening: bleomycin-treated spontaneous hypertensive rats, lung fibrosis quantitated by histomorphometry (Masson Trichrome); conditions: SHR given bleomycin at 14 weeks, 500 pmol/kg/min in drinking solution (5% ethanol) for 4 weeks from 16 weeks of age; for Fibrosis in the lung compared to 16 week controls: vs 16 week control (reversal of established fibrosis); for Fibrosis in the lung compared to 20 week controls: vs 20 week vehicle control (prevention)
Experimental: Fourteen week old spontaneous hypertensive rats (SHR) were anaesthetised using 3% isoflurane, the tongue was gently pulled forward and bleomycin […] in 200 μL of normal saline placed in the distal oropharynx using a micropipette while the nose is gently closed. Rats were then left to recover from anaesthesia. At 16 weeks of age SHR were randomised to control (16 weeks or 20 weeks) or treated groups. The 16 week controls were anaesthetised and had blood sampled and tissues harvested. The 20 week controls received drinking solution alone (5% ethanol) while the treated groups received test compound dissolved in the drinking water with concentration adjusted twice weekly to maintain a dose of 500 pmol/kg/min for 4 weeks. At 20 weeks of age rats were anaesthetised and had blood sampled and tissues harvested.
For histological examination lungs were fixed in formalin and sections from each of two levels were stained using Masson Trichrome. Fibrosis was quantitated by histomorphometry by an observer blinded to experimental group.

Row | SMILES | Cellular impedance (baseline normalized cell index) response [1] | Fibrosis in the lung compared to 16 week controls (lung fibrosis) | Fibrosis in the lung compared to 20 week controls (lung fibrosis)
1 | CS(=O)(=O)Nc1cc(-c2ccc(-c3cccnn3)cc2CCC(N)=O)ccn1 [D11, 3-(2-(2-((Methylsulfonyl)amino)pyridin-4-yl)-5-(pyridazin-3-yl)phenyl)propanamide] | negative deflection | – | –
2 | NC(=O)CCc1cc(-c2ccccc2)ccc1-c1cccc(O)c1 [VB0004] | Negative impedance responses | decreased | decreased
3 | O=C1NCCC1Cc1cc(-c2ccccc2)ccc1-c1cccc(O)c1 (stereo not drawn) [A26] | Negative impedance responses | – | –
4 | CCOC(=O)C(Cc1cc(-c2cncnc2)ccc1-c1cc(N)ncn1)C(=O)OCC [D5, Diethyl (2-(6-aminopyrimidin-4-yl)-5-(pyrimidin-5-yl)benzyl)propanedioate] | Negative impedance responses | – | –
5 | Cc1cscc1-c1ccc(-c2cccc(O)c2)c(CCC(N)=O)c1 [P44] | Negative impedance responses | – | –
6 | NC(=O)CCc1cc(-c2cccnc2)ccc1-c1cccc(NC(=O)Nc2cccc(-c3ccc(-c4cccnc4)cc3CCC(N)=O)c2)c1 [D167] | Negative impedance responses | – | –
7 | CS(=O)(=O)Nc1cc(-c2ccc(-c3cnccn3)cc2CCC(N)=O)ccn1 [D17, 3-[2-(2-[(Methylsulfonyl)amino]pyridin-4-yl)-5-(pyrazin-2-yl)phenyl]propanamide] | Negative impedance responses | – | –
8 | CS(=O)(=O)NC1=CC(c2cccc(NS(C)(=O)=O)c2)(c2cnccn2)CC(CCC(N)=O)=C1 (stereo not drawn) [D16, 3-(3′,5-Bis((methylsulfonyl)amino)-1-(pyrazin-2-yl)biphenyl-3-yl)propanamide] | Negative impedance responses | – | –
9 | NC(=O)CCc1cc(-c2cccnc2)ccc1-c1ccc2[nH]c(=O)[nH]c2c1 [D30, 3-(2-(2-Oxo-2,3-dihydro-1H-benzimidazol-5-yl)-5-(pyridin-3-yl)phenyl)propanamide] | Negative impedance responses | decreased | decreased
10 | O=C1CC(Cc2cc(-c3ccccc3)ccc2-c2cccc(O)c2)C(=O)N1 (stereo not drawn) [A30] | Negative impedance responses | – | –
11 | NC(=O)CCc1cc(-c2ccncn2)ccc1-c1cccc(O)c1 [P25, 3-[3′-Hydroxy-4-(pyrimidin-4-yl)biphenyl-2-yl]propanamide] | Negative impedance responses | – | –
12 | NOCCc1cc(-c2ccccc2)ccc1-c1cccc(O)c1 [A56] | Negative impedance responses | – | –
13 | Nc1nocc1Cc1cc(-c2ccccc2)ccc1-c1cccc(O)c1 [A35] | Negative impedance responses | – | –
14 | CS(=O)(=O)Nc1cccc(-c2ccc(-c3ccc(F)cc3)cc2CCC(N)=O)c1 [D35, 3-(4″-Fluoro-3-((methylsulfonyl)amino)-1,1′:4′,1″-terphenyl-2′-yl)propanamide] | Negative impedance responses | – | –
15 | Cc1n[nH]c(C)c1-c1ccc(-c2cccc(O)c2)c(CCC(N)=O)c1 [P42] | Negative impedance responses | – | –
16 | NC(=O)C=Cc1cc(-c2cncnc2)ccc1-c1ccnc(N)c1 [D171, 3-[2-(2-Aminopyridin-4-yl)-5-(pyrimidin-5-yl)phenyl]propenamide] | Negative impedance responses | – | –

Row | SMILES | Cellular impedance (baseline normalized cell index) response [1] | Fibrosis in the lung compared to 16 week controls (lung fibrosis) | Fibrosis in the lung compared to 20 week controls (lung fibrosis)
17 | O=C1NC(=O)C(Cc2cc(-c3ccccc3)ccc2-c2cccc(O)c2)O1 (stereo not drawn) [A79] | Negative impedance responses | decreased | decreased
18 | CNS(=O)(=O)Nc1cccc(-c2ccc(-c3cccnc3)cc2CCC(N)=O)c1 [D31, 3-(3′-((Methylsulfamoyl)amino)-4-(pyridin-3-yl)biphenyl-2-yl)propanamide] | Negative impedance responses | – | –
19 | CS(=O)(=O)Nc1cc(NS(C)(=O)=O)cc(-c2ccc(-c3cncnc3)cc2CCC(N)=O)c1 [D4] | Negative impedance responses | – | –
20 | O=C1NC(=O)C(Cc2cc(-c3ccccc3)ccc2-c2cccc(O)c2)N1 (stereo not drawn) [A32] | Negative impedance responses | decreased | decreased
21 | NC(=O)CCc1cc(-c2cncnc2)ccc1-c1cc(N)ncn1 [D6, 3-(2-(6-Aminopyrimidin-4-yl)-5-(pyrimidin-5-yl)phenyl)propanamide] | Negative impedance responses | decreased | decreased
22 | NC(=O)CCc1cc(-c2cccnn2)ccc1-c1cccc(O)c1 [P14, 3-[3′-Hydroxy-4-(pyridazin-3-yl)biphenyl-2-yl]propanamide] | Negative impedance responses | – | –
23 | Cc1ccsc1-c1ccc(-c2cccc(O)c2)c(CCC(N)=O)c1 [P43] | Negative impedance responses | – | –
24 | NC(=O)CCc1cc(-c2cnccn2)ccc1-c1cccc(O)c1 [P13, 3-[3′-Hydroxy-4-(pyrazin-2-yl)biphenyl-2-yl]propanamide] | Negative impedance responses | – | decreased
25 | NC(=O)C=Cc1cc(-c2cncnc2)ccc1-c1cc(N)cc(N)c1 [D172, 3-(2-(3,5-Diaminophenyl)-5-(pyrimidin-5-yl)phenyl)propenamide] | Negative impedance responses | – | –
26 | O=C1NCC/C1=C\c1cc(-c2ccccc2)ccc1-c1cccc(O)c1 [A27] | Negative impedance responses | – | –
27 | CS(=O)(=O)Nc1cc(NS(C)(=O)=O)cc(-c2ccc(-c3cccnn3)cc2CCC(N)=O)c1 [D10] | Negative impedance responses | – | –
28 | NC(=O)CCc1cc(-c2cnccn2)ccc1-c1cc(N)ncn1 [D18, 3-(2-(6-Aminopyrimidin-4-yl)-5-(pyrazin-2-yl)phenyl)propanamide] | Negative impedance responses | – | –
29 | CS(=O)(=O)Nc1cccc(-c2ccc(-c3cccnc3)cc2CCC(N)=O)c1 [D28, 3-(3′-((Methylsulfonyl)amino)-4-(pyridin-3-yl)biphenyl-2-yl)propanamide] | Negative impedance responses | – | –
30 | NC(CCc1cc(-c2ccccc2)ccc1-c1cccc(O)c1)C(F)(F)F (stereo not drawn) [A6] | Negative impedance responses | decreased | decreased
31 | Cc1nc(C)c(-c2ccc(-c3cccc(NS(C)(=O)=O)c3)c(CCC(N)=O)c2)s1 [D32, 4-(2,4-Dimethyl-1,3-thiazol-5-yl)-3-(3′-((methylsulfonyl)amino)biphenyl-2-yl)propanamide] | Negative impedance responses | – | –
32 | NC(=O)CCc1cc(-c2cccnn2)ccc1-c1cc(N)ncn1 [D12, 3-(2-(6-Aminopyrimidin-4-yl)-5-(pyridazin-3-yl)phenyl)propanamide] | Negative impedance responses | – | –
